The target of the experiment is T1, EGFR TMLRCS (T790M/L858R/C797S) (Homo sapiens, UniProt P00533, C797S/L858R/T790M).
T1 construct: host or cells: BaF3-TMLRCS cell line
T1 sequence (P00533 25-1210 T790M/C797S/L858R): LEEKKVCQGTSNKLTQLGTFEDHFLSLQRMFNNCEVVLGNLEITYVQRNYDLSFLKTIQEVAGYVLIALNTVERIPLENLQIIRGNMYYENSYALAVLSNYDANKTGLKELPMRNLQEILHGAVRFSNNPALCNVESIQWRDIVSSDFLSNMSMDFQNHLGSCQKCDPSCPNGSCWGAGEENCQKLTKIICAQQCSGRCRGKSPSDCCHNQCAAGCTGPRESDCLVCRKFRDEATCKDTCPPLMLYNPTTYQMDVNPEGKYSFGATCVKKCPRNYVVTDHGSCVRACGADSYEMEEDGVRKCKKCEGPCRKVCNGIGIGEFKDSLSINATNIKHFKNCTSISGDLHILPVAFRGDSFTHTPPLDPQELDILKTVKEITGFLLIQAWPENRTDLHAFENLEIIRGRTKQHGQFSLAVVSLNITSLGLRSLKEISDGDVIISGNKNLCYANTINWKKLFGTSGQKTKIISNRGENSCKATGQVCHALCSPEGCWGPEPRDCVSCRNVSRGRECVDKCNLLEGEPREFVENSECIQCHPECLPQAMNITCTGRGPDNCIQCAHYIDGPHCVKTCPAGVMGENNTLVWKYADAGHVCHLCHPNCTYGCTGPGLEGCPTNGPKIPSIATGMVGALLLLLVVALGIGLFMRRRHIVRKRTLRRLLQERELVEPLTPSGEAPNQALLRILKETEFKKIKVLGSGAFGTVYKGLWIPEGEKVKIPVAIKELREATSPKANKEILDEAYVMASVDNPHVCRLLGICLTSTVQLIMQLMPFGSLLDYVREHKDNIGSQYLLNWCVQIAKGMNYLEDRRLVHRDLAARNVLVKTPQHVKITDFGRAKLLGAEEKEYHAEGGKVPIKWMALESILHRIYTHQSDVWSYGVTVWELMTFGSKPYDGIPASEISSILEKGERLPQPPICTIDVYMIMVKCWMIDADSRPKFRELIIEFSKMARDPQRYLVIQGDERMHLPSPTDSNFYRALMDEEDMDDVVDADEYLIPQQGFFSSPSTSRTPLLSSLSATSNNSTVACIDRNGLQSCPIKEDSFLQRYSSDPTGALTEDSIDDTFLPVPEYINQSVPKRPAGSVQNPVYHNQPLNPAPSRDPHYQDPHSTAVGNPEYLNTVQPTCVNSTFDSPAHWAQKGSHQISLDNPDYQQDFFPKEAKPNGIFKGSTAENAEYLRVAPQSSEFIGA
Kind of experiment: HTRF Phospho EGFR TMLRCS assay (cellular), BaF3-TMLRCS cells. In kind it is cell-based. Conditions: BaF3-TMLRCS cell line, 4 hours incubation. The procedure: HTRF Phospho EGFR TMLRCS Assay (Cellular)
BaF3-TMLRCS cell line were obtained from Crownbio (San Diego, Calif., USA). Cells were maintained at 37° C., 5% CO2 in RPMI ATCC (Gibco 31870)+2 mM Glutamine+0.5 μg/ml Puromycin supplemented with 10% fetal bovine serum (FBS) (Gibco).
Cells are transferred as above to Greiner Bio-One, Nr. 784-08 micro-titerplate at 20000 cells/well in 12.5 μl of growth medium/well after the plates had been pre-filled with 12.5 nl of DMSO solutions of the to be tested compound (in dose response) or DMSO only. After spinning the plates at 300×g for 30 seconds the cells were incubated for 4 hours at 37 C, 5% CO2, 95% humidity. The cells were lysed by adding to the compound mix 4 µl/well of the supplemented lysis buffer (Cis-bio, Phospho-EGFR HTRF kit, 64EG1PEH), followed by incubation for 30 min at room temperature with shaking (400 rpm). The plates were then frozen and stored overnight at −80 C. On the next day and after thawing the plates, 4 μl of a mixture of anti-Phospho-EGFR Cryptate and of anti-Phospho-EGFR-d2 antibody solutions prepared in the supplied detection buffer was added to each well. The lidded plates were then incubated for 4 h at room temperature before reading the fluorescence emission at 616 and 665 nm using an Envision reader (Perkin Elmer). Data was analyzed in similar fashion as above using the normalized ratio of the 665 to 616 signals multiplied by 10000.
Take `O=C(Nc1nccs1)C(c1ncn2c1CCC2)N1Cc2c(F)cc(-c3ccc(C45CC(CN6CCCC6)(C4)C5)cc3)cc2C1=O` (racemic) [Example 5, (2RS)-2-(6,7-Dihydro-5H-pyrrolo[1,2-c]imidazol-1-yl)-2-[4-fluoro-1-oxo-6-[4-[3-(pyrrolidin-1-ylmethyl)-1-bicyclo[1.1.1]pentanyl]phenyl]isoindolin-2-yl]-N-thiazol-2-yl-acetamide]: the 50% inhibitory concentration (IC50) was found to be 13 nM.
The molecule `O=C(Nc1nccs1)C(c1ncn2c1CCC2)N1Cc2c(Cl)cc(-c3ccc(C45CC(CN6CCC(CO)CC6)(C4)C5)cc3)cc2C1=O` (racemic) [Example 1, (2RS)-2-(6,7-Dihydro-5H-pyrrolo[1,2-c]imidazol-1-yl)-2-[4-chloro-6-[4-[3-[[4-(hydroxymethyl)-1-piperidyl]methyl]-1-bicyclo[1.1.1]pentanyl]phenyl]-1-oxo-isoindolin-2-yl]-N-thiazol-2-yl-acetamide] showed an IC50 of 9 nM.
Then `O=C(Nc1nccs1)C(c1ncn2c1CCC2)N1Cc2c(F)cc(-c3ccc(C45CC(CN6CCC(CO)CC6)(C4)C5)cc3)c(F)c2C1=O` (racemic) [Example 7, (2RS)-2-[4,7-Difluoro-6-[4-[3-[[4-(hydroxymethyl)-1-piperidyl]methyl]-1-bicyclo[1.1.1]pentanyl]phenyl]-1-oxo-isoindolin-2-yl]-2-(6,7-dihydro-5H-pyrrolo[1,2-c]imidazol-1-yl)-N-thiazol-2-yl-acetamide], with 4 nM; and `O=C(Nc1nccs1)C(c1ncn2c1CCC2)N1Cc2c(F)cc(-c3ccc(C45CC(CN6CCC(O)CC6)(C4)C5)cc3)cc2C1=O` (racemic) [Example 4, (2RS)-2-(6,7-Dihydro-5H-pyrrolo[1,2-c]imidazol-1-yl)-2-[4-fluoro-6-[4-[3-[(4-hydroxy-1-piperidyl)methyl]-1-bicyclo[1.1.1]pentanyl]phenyl]-1-oxo-isoindolin-2-yl]-N-thiazol-2-yl-acetamide], with 13 nM; and `O=C(Nc1nccs1)C(c1ncn2c1CCC2)N1Cc2c(F)cc(-c3ccc(C45CC(CN6CCC(CO)CC6)(C4)C5)cc3)cc2C1=O` (racemic) [Example 2, (2RS)-2-(6,7-Dihydro-5H-pyrrolo[1,2-c]imidazol-1-yl)-2-[4-fluoro-6-[4-[3-[[4-(hydroxymethyl)-1-piperidyl]methyl]-1-bicyclo[1.1.1]pentanyl]phenyl]-1-oxo-isoindolin-2-yl]-N-thiazol-2-yl-acetamide], with 4 nM.
Regarding `O=C(Nc1nccs1)C(c1ncn2c1CCC2)N1Cc2c(F)cc(-c3ccc(C45CC(CN6CCCC(O)CC6)(C4)C5)cc3)cc2C1=O` (racemic) [Example 6, (2RS)-2-(6,7-Dihydro-5H-pyrrolo[1,2-c]imidazol-1-yl)-2-[4-fluoro-6-[4-[3-[[(4RS)-4-hydroxyazepan-1-yl]methyl]-1-bicyclo[1.1.1]pentanyl]phenyl]-1-oxo-isoindolin-2-yl]-N-thiazol-2-yl-acetamide], the IC50 worked out at 8 nM.
Then `CN(C)CC12CC(c3ccc(-c4cc(F)c5c(c4)C(=O)N(C(C(=O)Nc4nccs4)c4ncn6c4CCC6)C5)cc3)(C1)C2` (racemic) [Example 3, (2RS)-2-(6,7-Dihydro-5H-pyrrolo[1,2-c]imidazol-1-yl)-2-[6-[4-[3-[(dimethylamino)methyl]-1-bicyclo[1.1.1]pentanyl]phenyl]-4-fluoro-1-oxo-isoindolin-2-yl]-N-thiazol-2-yl-acetamide], with 10 nM.

For the origin of these results see patent US20230057891A1, “EGFR INHIBITORS” (Hoffmann-La Roche Inc., priority 2019, published 2023).
